Source: patent US20160318866A1, “SUBSTITUTED BIPIPERIDINYL DERIVATIVES” (Bayer Pharma Aktiengesellschaft, priority 2013, published 2016)
Counter-ions that a name gives are not always drawn.

target: T1, human α2C receptor (Homo sapiens, UniProt P18825); test: Antagonism against the adrenoreceptor α2C (luminescence, recombinant CHO cell line); type: cell-based; conditions: antagonism against adrenoreceptor α2C; noradrenaline 20 nM; tested up to 10 μM; read-out: IC50
T1 construct: expressed in transfected cells; host or cells: CHO cells, also recombinantly expressing chimeric G protein Gαqi3 and mitochondrial obelin (mtOb)
T1 sequence (P18825 1-462): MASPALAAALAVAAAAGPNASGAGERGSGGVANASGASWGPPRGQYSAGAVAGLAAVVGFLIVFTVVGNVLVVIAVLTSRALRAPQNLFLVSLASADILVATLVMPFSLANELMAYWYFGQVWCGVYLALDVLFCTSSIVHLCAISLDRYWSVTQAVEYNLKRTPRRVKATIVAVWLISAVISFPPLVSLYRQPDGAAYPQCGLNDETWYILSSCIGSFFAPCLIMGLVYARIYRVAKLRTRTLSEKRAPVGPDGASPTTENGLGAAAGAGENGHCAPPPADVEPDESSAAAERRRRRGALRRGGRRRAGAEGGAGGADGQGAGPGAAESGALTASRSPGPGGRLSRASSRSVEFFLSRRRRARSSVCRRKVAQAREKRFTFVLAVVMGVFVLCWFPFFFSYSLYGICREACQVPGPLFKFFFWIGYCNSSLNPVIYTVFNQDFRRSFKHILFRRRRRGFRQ
How it was run: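 CHO cells expressing human α2C receptor with chimeric Gαqi3 and mitochondrial obelin, loaded with 2.5 μg/ml coelenterazine for one day at 30 °C.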

Compound | IC50 [µM]
C[C@@H]1CCCN(C2CCN(C(=O)c3ccc(C(=O)NCc4ncccc4F)cc3)CC2)C1 [Example 98, N-[(3-Fluoropyridin-2-yl)methyl]-4-{[(3R)-3-methyl-1,4′-bipiperidin-1′-yl]carbonyl}benzamide] | 0.027
C[C@@H]1CCCN(C2CCN(C(=O)c3ccc(C(C)(C)O)c(Cl)c3)CC2)C1 [Example 99, [3-Chloro-4-(2-hydroxypropan-2-yl)phenyl][(3R)-3-methyl-1,4′-bipiperidin-1′-yl]methanone] | 0.084
C[C@@H]1CCCN(C2CCN(C(=O)c3ccc(C(=O)NC(C)(C)C)c(Cl)c3)CC2)C1 [Example 100, N-tert-Butyl-2-chloro-4-{[(3R)-3-methyl-1,4′-bipiperidin-1′-yl]carbonyl}benzamide formic acid salt] | 0.027
C[C@@H]1CCCN(C2CCN(C(=O)c3ccc(C(=O)NC(C)(C)C)cc3Cl)CC2)C1 [Example 101, N-tert-Butyl-3-chloro-4-{[(3R)-3-methyl-1,4′-bipiperidin-1′-yl]carbonyl}benzamide formic acid salt] | 0.021
CC1CCCN(C2CCN(C(=O)c3ccc(C(=O)NC(C)(C)C)cc3F)CC2)C1 (stereo not shown) [Example 102, N-tert-Butyl-3-fluoro-4-[(3-methyl-1,4′-bipiperidin-1′-yl)carbonyl]benzamide hydrochloride] | 0.067
CC1CCCN(C2CCN(C(=O)c3ccc(C(=O)NC(C)(C)C)c(F)c3)CC2)C1 (stereo not shown) [Example 103, N-tert-Butyl-2-fluoro-4-[(3-methyl-1,4′-bipiperidin-1′-yl)carbonyl]benzamide] | 0.073
CC1=C(C)CN(C2CCN(C(=O)c3ccc(C(=O)Nc4c(C)noc4C)cc3)CC2)CC1 [Example 104, 4-{[4-(4,5-Dimethyl-3,6-dihydropyridin-1 (2H)-yl)piperidin-1-yl]carbonyl}-N-(3,5-dimethyl-1,2-oxazol-4-yl)benzamide] | 0.009
COCC1CCCN(C2CCN(C(=O)c3ccc(C(=O)Nc4c(C)noc4C)cc3)CC2)C1 (stereo not shown) [Example 105, N-(3,5-Dimethyl-1,2-oxazol-4-yl)-4-{[3-(methoxymethyl)-1,4′-bipiperidin-1′-yl]carbonyl}benzamide] | 0.01
CC(C)(C)OCC1CCCN(C2CCN(C(=O)c3ccc(C(C)(C)O)cc3)CC2)C1 (stereo not shown) [Example 106, [3-(tert-Butoxymethyl)-1,4′-bipiperidin-1′-yl][4-(2-hydroxypropan-2-yl)phenyl]methanone] | 0.035
CC(C)(C)OCC1CCCN(C2CCN(C(=O)c3ccc(C(C)(C)C)cc3)CC2)C1 (stereo not shown) [Example 107, [3-(tert-Butoxymethyl)-1,4′-bipiperidin-1′-yl](4-tert-butylphenyl)methanone] | 0.09
CC(C)(O)c1ccc(C(=O)N2CCC(N3CCCC(COc4cccc(F)c4)C3)CC2)cc1 (stereo not shown) [Example 108, {3-[(3-Fluorophenoxy)methyl]-1,4′-bipiperidin-1′-yl}[4-(2-hydroxypropan-2-yl)phenyl]methanone] | 0.112
COCCc1noc(C2CCCN(C3CCN(C(=O)c4ccc(C(C)(C)C)cc4)CC3)C2)n1 (stereo not shown) [Example 109, (4-tert-Butylphenyl){3[3-(2-methoxyethyl)-1,2,4-oxadiazol-5-yl]-1,4′-bipiperidin-1′-}methanone] | 0.104
CC(C)(O)c1ccc(C(=O)N2CCC(N3CCCC(COC(F)(F)F)C3)CC2)cc1 (stereo not shown) [Example 110, [4-(2-Hydroxypropan-2-yl)phenyl]{3-[(trifluoromethoxy)methyl]-1,4′-bipiperidin-1′-yl}methanone] | 0.007
CC(C)(O)c1ccc(C(=O)N2CCC(N3CCCC(OCC4CCC4)C3)CC2)cc1 (stereo not shown) [Example 111, [3-(Cyclobutylmethoxy)-1,4′-bipiperidin-1-yl][4-(2-hydroxypropan-2-yl)phenyl]methanone] | 0.01
CC(C)(O)c1ccc(C(=O)N2CCC(N3CCCC(OC4CC4)C3)CC2)cc1 (stereo not shown) [Example 112, 3-(Cyclopropyloxy)-1,4′-bipiperidin-1′-yl][4-(2-hydroxypropan-2-yl)phenyl]methanone formic acid salt] | 0.358
C[C@@H]1CCCN(C2CCN(C(=O)c3ccc(C(C)(C)O)c(F)c3)CC2)C1 [Example 113, [3-Fluoro-4-(2-hydroxypropan-2-yl)phenyl][(3R)-3-methyl-1,4′-bipiperidin-1′-yl]methanone] | 0.033
CCC1CCCN(C2CCN(C(=O)c3ccc(C(C)(C)O)cc3)CC2)C1 (stereo not shown) [Example 114, [3-Ethyl-1,4′-bipiperidin-1′-yl][4-(2-hydroxypropan-2-yl)phenyl]methanone] | 0.072
CC(C)(O)c1ccc(C(=O)N2CCC(N3CCCC(COC4CC4)C3)CC2)cc1 (stereo not shown) [Example 118, {3-[(Cyclopropyloxy)methyl]-1,4′-bipiperidin-1′-yl}[4-(2-hydroxypropan-2-yl)phenyl]methanone] | 0.008
COC(C)(C)c1ccc(C(=O)N2CCC(N3CCCC(COC(C)(C)C)C3)CC2)cc1 (stereo not shown) [Example 119, [3-(tert-Butoxymethyl)-1,4′-bipiperidin-1′-yl][4-(2-methoxypropan-2-yl)phenyl]methanone] | 0.016
CCOCC1CCCN(C2CCN(C(=O)c3ccc(C(C)(C)O)cc3)CC2)C1 (stereo not shown) [Example 120, [3-(Ethoxymethyl)-1,4′-bipiperidin-1′-yl][4-(2-hydroxypropan-2-yl)phenyl]methanone] | 0.01
COC(C)(C)c1ccc(C(=O)N2CCC(N3CCCC(OCC4CC4)C3)CC2)cc1 (stereo not shown) [Example 122, [3-(Cyclopropylmethoxy)-1,4′-bipiperidin-1′-yl][4-(2-methoxypropan-2-yl)phenyl]methanone] | 0.009
O=C(c1ccc(C2(O)COC2)cc1)N1CCC(N2CCCC(OCC3CC3)C2)CC1 (stereo not shown) [Example 124, [3-(Cyclopropylmethoxy)-1,4′-bipiperidin-1′-yl][4-(3-hydroxyoxetan-3-yl)phenyl]methanone] | 0.039
CC(C)(O)c1ccc(C(=O)N2CCC(N3CCCC(C4CC4)C3)CC2)cc1 (stereo not shown) [Example 126, (3-Cyclopropyl-1,4′-bipiperidin-1′-yl)[4-(2-hydroxypropan-2-yl)phenyl]methanone] | 0.012
CC(C)(O)c1ccc(C(=O)N2CCC(N3CCCC(OCCOC(F)(F)F)C3)CC2)cc1 (stereo not shown) [Example 127, [4-(2-Hydroxypropan-2-yl)phenyl]{3-[2-(trifluoromethoxy)ethoxy]-1,4′-bipiperidin-1′-yl}methanone] | 0.154
CC(C)(O)c1ccc(C(=O)N2CCC(N3CCCC(OCC4CC4)C3)CC2)cc1 (stereo not shown) [Example 128, [3-(Cyclopropylmethoxy)-1,4′-bipiperidin-1′-yl][4-(2-hydroxypropan-2-yl)phenyl]methanone] | 0.036
